Test results taken from patent US11530244B2, “Cyclic polypeptides for PCSK9 inhibition” (priority 2018, dated 2022).
Starred links: 1 amine or outer side, 2 acyl side, 3 side chain; linkers in the order of their positions; H or OH if unused. Positions of bridges follow the written chain, without caps; N, C: chain ends. Non-standard residues stand in square brackets, D forms with d. Residues, ends and D or L forms follow the SMILES beside them. *: point of attachment. Ala(imidazol-2-yl) = N[C@@H](Cc1ncc[nH]1)C(=O)O; Trp(5-OH) = N[C@@H](Cc1c[nH]c2ccc(O)cc12)C(=O)O; Phe(4-COOH) = N[C@@H](Cc1ccc(C(=O)O)cc1)C(=O)O; Trp(5-F) = N[C@@H](Cc1c[nH]c2ccc(F)cc12)C(=O)O; X55 = O=C(CCCCCC(=O)[*:1])NCc1ccc(CCN[*:2])cc1; Isophthaloyl = O=C(c1cccc(C(=O)[*:2])c1)[*:1]; Acetyl(2-(4-imidazolyl)) = O=C(Cc1c[nH]cn1)*; Phac(3-amino) = O=C(Cc1cccc(N[*:1])c1)[*:2]; X3 = O=C(CCSCc1cc(F)cc(CSCCN[*:1])c1)[*:2]; Pro(cis-4-F) = O=C(O)[C@@H]1C[C@H](F)CN1; Nle(6-COOH) = N[C@@H](CCCCC(=O)O)C(=O)O; X4 = O=C(CCSCc1cccc(CSCCN[*:1])c1)[*:2]; mXylylene = c1cc(C[*:1])cc(C[*:2])c1; AEF = NCCOc1ccc(C[C@H](N)C(=O)O)cc1; Lys(Me2) = CN(C)CCCC[C@H](N)C(=O)O; X6 = O=C(Cc1ccc(CN[*:2])cc1)[*:1]; Hyp = O=C(O)[C@@H]1C[C@@H](O)CN1; Aad = N[C@@H](CCCC(=O)O)C(=O)O; Lys(Me) = CNCCCC[C@H](N)C(=O)O; aThr = C[C@H](O)[C@H](N)C(=O)O; αMeP = C[C@@]1(C(=O)O)CCCN1; Orn = NCCC[C@H](N)C(=O)O; Dab = NCC[C@H](N)C(=O)O; Dap = NC[C@H](N)C(=O)O; X2 = O=C(C[*:2])[*:1]; Ava = NCCCCC(=O)O; Mpa = O=C(O)CCS

These molecules were tested against PCSK9 (Homo sapiens (Human), UniProt Q8NBP7) (assay: PCSK9 Alexa FRET Standard assay (displacement of AlexaFluor647 tagged cyclic peptide Reagent A)). Conditions: IC50, PCSK9 Alexa FRET Standard assay, 0.5 nM PCSK9, 20 nM AF cyclic peptide Reagent A.
Sequence of PCSK9 (Q8NBP7 153-692): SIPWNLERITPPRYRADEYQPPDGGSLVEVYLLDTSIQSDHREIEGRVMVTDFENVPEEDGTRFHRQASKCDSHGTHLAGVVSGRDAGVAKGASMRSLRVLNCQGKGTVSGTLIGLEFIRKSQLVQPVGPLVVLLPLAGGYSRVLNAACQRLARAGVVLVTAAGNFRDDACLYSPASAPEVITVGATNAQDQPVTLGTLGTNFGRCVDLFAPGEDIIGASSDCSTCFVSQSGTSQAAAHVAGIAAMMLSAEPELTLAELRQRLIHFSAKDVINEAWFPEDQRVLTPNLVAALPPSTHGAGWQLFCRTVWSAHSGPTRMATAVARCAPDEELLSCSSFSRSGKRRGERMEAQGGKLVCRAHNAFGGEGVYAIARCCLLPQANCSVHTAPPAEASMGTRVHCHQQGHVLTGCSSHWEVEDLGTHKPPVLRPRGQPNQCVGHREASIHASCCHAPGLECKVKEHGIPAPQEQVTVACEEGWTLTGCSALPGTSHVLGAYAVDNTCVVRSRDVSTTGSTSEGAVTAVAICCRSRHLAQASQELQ
Assay type: binding
Procedure: A solution containing 1 nM biotinylated PCSK9+2.5 nM Lance Streptavidin Europium (Strep-Eu) was made in 50 mM HEPES pH 7.4, 0.15 M NaCl, 5 mM CaCl2), 0.01% BSA, and 0.01% Surfactant P20. A separate solution containing 40 nM of the AlexaFluor tagged cyclic peptide was made in the same buffer system. An Echo was used to transfer 0.750 ul of compound to an assay plate followed by the addition of 15 ul of PCSK9+Stept-Eu and 15 ul of AF peptide. The final assay volume was 30.750 ul containing 0.5 nM PCSK9, 1.25 nM Strep-Eu, and 20 nM AF cyclic peptide. The reaction was incubated at room temperature for at least two hours prior to fluorescence measurements using an Envision Multilabel Reader. IC50 values were determined by fitting data to a sigmoidal dose-response curve using nonlinear regression. Ki was then calculated from the IC50 and the KD of AF cyclic peptide. Counts (B-counts) of the europium-labeled PCSK9 were followed to observe if compounds were […]. A fall off of the B-counts likely indicated a false positive of inhibition. Data from this procedure was reported as “A=‘numerical value’ (nanomolar)”

Row | Compound | IC50 [µM]
1 | COc1ccc(C[C@@H]2NC(=O)[C@H]([C@@H](C)O)NC(=O)[C@@H]3C[C@H](F)CN3C(=O)[C@H](Cc3c[nH]c4ccc(F)cc34)NC(=O)[C@H](Cc3c[nH]c4ccc(F)cc34)NC(=O)[C@@H](C)NC(=O)[C@H](CCCCN)NC(=O)[C@@H](NC(=O)Cc3cnc[nH]3)CC(=O)NCCOc3ccc(cc3)C[C@@H](C(N)=O)NC(=O)[C@]3(C)CCCN3C2=O)cc1 [Compound 105] ({Acetyl(2-(4-imidazolyl))}-DK[dA][Trp(5-F)][Trp(5-F)][Pro(cis-4-F)]TY(Me)[αMeP][AEF]-NH2; lactam 1-10) | 1 to 12.1

Same assay, conditions: PCSK9 Alexa FRET Standard assay, 0.5 nM PCSK9, 20 nM AF cyclic peptide Reagent A; read-out: IC50

Row | Compound | IC50 [µM]
2 | COc1ccc(C[C@@H]2NC(=O)[C@H](C(C)C)NC(=O)[C@@H]3CCCN3C(=O)[C@H](Cc3c[nH]c4ccc(F)cc34)NC(=O)[C@H](Cc3c[nH]c4ccc(F)cc34)NC(=O)[C@@H](C)NC(=O)[C@H](CCCCN)NC(=O)CCSCc3cccc(c3)CSC[C@@H](C(N)=O)NC(=O)[C@]3(C)CCCN3C2=O)cc1 [Compound 009] ([Mpa]K[dA][Trp(5-F)][Trp(5-F)]PVY(Me)[αMeP]C-NH2; linker 1-10 via mXylylene) | 21 to 50
3 | COc1ccc(C[C@@H]2NC(=O)[C@H]([C@H](C)O)NC(=O)[C@@H]3CCCc4cn(nn4)CCCC[C@H](NC(=O)[C@@H](C)NC(=O)[C@H](CCCCN)NC(=O)CCSCc4cccc(c4)CSCCNC(=O)[C@]4(C)CCCN4C2=O)C(=O)N[C@@H](Cc2c[nH]c4ccc(F)cc24)C(=O)N3)cc1 [Compound 526] | 0.00011 to 0.1
4 | COc1ccc(C[C@@H]2NC(=O)[C@@H]3CCCC(=O)N[C@@H]4C[C@H](C(=O)N3)N(C4)C(=O)[C@H](Cc3c[nH]c4ccc(F)cc34)NC(=O)[C@H](Cc3c[nH]c4ccc(F)cc34)NC(=O)[C@@H](C)NC(=O)[C@H](CCCCN)NC(=O)CCSCc3cccc(c3)CSCCNC(=O)[C@]3(C)CCCN3C2=O)cc1 [Compound 522] | 0.00011 to 0.1
5 | CC(=O)N[C@H]1CCc2cn(nn2)-c2ccc(cc2)C[C@@H](C(N)=O)NC(=O)[C@]2(C)CCCN2C(=O)[C@H](Cc2ccc(O)cc2)NC(=O)[C@H](Cc2cnc[nH]2)NC(=O)[C@H](CC(=O)O)NC(=O)[C@H](Cc2c[nH]c3ccc(F)cc23)NC(=O)[C@H](Cc2c[nH]c3ccc(F)cc23)NC(=O)CNC(=O)[C@H](C)NC1=O [Compound 331] | 21 to 50
6 | CNCCCC[C@@H]1NC(=O)CCSCc2cc(F)cc(c2)CSCCNC(=O)[C@]2(C)CCCN2C(=O)[C@H](Cc2ccc(OC)cc2)NC(=O)[C@H](Cc2ncc[nH]2)NC(=O)[C@H](CC(=O)O)NC(=O)[C@H](Cc2c[nH]c3ccc(F)cc23)NC(=O)[C@H](Cc2c[nH]c3ccc(F)cc23)NC(=O)[C@@H](C)NC1=O [Compound 468] (cyclo(D[Ala(imidazol-2-yl)]Y(Me)[αMeP][X3][Lys(Me)][dA][Trp(5-F)][Trp(5-F)])) | 1 to 12.1
7 | COc1ccc(C[C@@H]2NC(=O)[C@H]([C@@H](C)O)NC(=O)[C@@H]3C[C@H](F)CN3C(=O)[C@H](Cc3c[nH]c4ccc(F)cc34)NC(=O)[C@H](Cc3c[nH]c4ccc(F)cc34)NC(=O)[C@@H](C)NC(=O)CCCCNC(=O)c3ccc(cc3)C[C@@H](C(N)=O)NC(=O)[C@]3(C)CCCN3C2=O)cc1 [Compound 076] ([Ava][dA][Trp(5-F)][Trp(5-F)][Pro(cis-4-F)]TY(Me)[αMeP][Phe(4-COOH)]-NH2; lactam N-9) | 0.1 to 1
8 | C[C@@]12CCCN1C(=O)[C@H](Cc1ccc(O)cc1)NC(=O)[C@H](Cc1cnc[nH]1)NC(=O)[C@H](CC(=O)O)NC(=O)[C@H](Cc1c[nH]c3ccc(O)cc13)NC(=O)[C@H](Cc1c[nH]c3ccc(O)cc13)NC(=O)CNC(=O)[C@H](CCCCN)NC(=O)CCSCc1cccc(c1)CSC[C@@H](C(N)=O)NC2=O [Compound 415] ([Mpa]KG[Trp(5-OH)][Trp(5-OH)]DHY[αMeP]C-NH2; linker 1-10 via mXylylene) | 0.00011 to 0.1
9 | CC(=O)N[C@H]1CNC(=O)COc2ccc(cc2)C[C@@H](C(N)=O)NC(=O)[C@]2(C)CCCN2C(=O)[C@H](Cc2ccc(O)cc2)NC(=O)[C@H](Cc2cnc[nH]2)NC(=O)[C@H](CC(=O)O)NC(=O)[C@H](Cc2c[nH]c3ccc(F)cc23)NC(=O)[C@H](Cc2c[nH]c3ccc(F)cc23)NC(=O)CNC(=O)[C@H](C)NC1=O [Compound 351] (Ac-[Dap]AG[Trp(5-F)][Trp(5-F)]DHY[αMeP]Y-NH2; linker 1-10 via X2) | 21 to 50
10 | COc1ccc(C[C@@H]2NC(=O)[C@H]([C@H](C)O)NC(=O)[C@@H]3C[C@H](F)CN3C(=O)[C@H](Cc3c[nH]c4ccc(F)cc34)NC(=O)[C@H](Cc3c[nH]c4ccc(F)cc34)NC(=O)[C@@H](C)NC(=O)[C@H](C)NC(=O)[C@@H](NC(C)=O)CCNC(=O)c3cccc(c3)C(=O)NCCC[C@@H](C(N)=O)NC(=O)[C@]3(C)CCCN3C2=O)cc1 [Compound 134] (Ac-[Dab]A[dA][Trp(5-F)][Trp(5-F)][Pro(cis-4-F)][aThr]Y(Me)[αMeP][Orn]-NH2; linker 1-10 via Isophthaloyl) | 21 to 50
11 | COc1ccc(C[C@@H]2NC(=O)[C@H](Cc3cnc[nH]3)NC(=O)[C@H](CC(=O)O)NC(=O)[C@H](Cc3c[nH]c4ccc(F)cc34)NC(=O)[C@H](Cc3c[nH]c4ccc(F)cc34)NC(=O)[C@H](C)NC(=O)CCCCCC(=O)NCc3ccc(cc3)CCNC(=O)[C@]3(C)CCCN3C2=O)cc1 [Compound 470] (A[Trp(5-F)][Trp(5-F)]DHY(Me)[αMeP]; linker N-C via X55) | 0.00011 to 0.1
12 | C[C@@]12CCCN1C(=O)[C@H](Cc1ccc(O)cc1)NC(=O)CN1C(=O)[C@H](N=C(C3CCCCC3)c3ccccc31)NC(=O)[C@H](Cc1c[nH]c3ccc(F)cc13)NC(=O)[C@H](Cc1c[nH]c3ccc(F)cc13)NC(=O)CNC(=O)[C@H](CCCCN)NC(=O)CCSCc1cccc(c1)CSC[C@@H](C(N)=O)NC2=O [Compound 128] | 21 to 50
13 | COc1ccc(C[C@@H]2NC(=O)[C@H](Cc3cnc[nH]3)NC(=O)[C@H](CC(=O)O)NC(=O)[C@H](Cc3c[nH]c4ccc(F)cc34)NC(=O)[C@H](Cc3c[nH]c4ccc(F)cc34)NC(=O)[C@@H](C)NC(=O)[C@H](NC(C)=O)CCCCNC(=O)c3ccc(cc3)C[C@@H](C(N)=O)NC(=O)[C@]3(C)CCCN3C2=O)cc1 [Compound 341] (Ac-[dK][dA][Trp(5-F)][Trp(5-F)]DHY(Me)[αMeP][Phe(4-COOH)]-NH2; lactam 1-9) | 21 to 50
14 | COc1ccc(C[C@@H]2NC(=O)[C@H](Cc3ncc[nH]3)NC(=O)[C@H](CC(=O)O)NC(=O)[C@H](Cc3c[nH]c4ccc(F)cc34)NC(=O)[C@H](Cc3c[nH]c4ccc(F)cc34)NC(=O)[C@@H](C)NC(=O)[C@H](CCCCN(C)C)NC(=O)CCSCc3cc(F)cc(c3)CSCCNC(=O)[C@]3(C)CCCN3C2=O)cc1 [Compound 465] (cyclo(D[Ala(imidazol-2-yl)]Y(Me)[αMeP][X3][Lys(Me2)][dA][Trp(5-F)][Trp(5-F)])) | 1 to 12.1
15 | COc1ccc(C[C@@H]2NC(=O)[C@H](Cc3cnc[nH]3)NC(=O)[C@H](CC(=O)O)NC(=O)[C@H](Cc3c[nH]c4ccc(F)cc34)NC(=O)[C@H](Cc3c[nH]c4ccc(F)cc34)NC(=O)[C@@H](C)NC(=O)[C@H](NC(C)=O)CCCCNC(=O)Cc3ccc(cc3)CNC(=O)CCC[C@@H](C(N)=O)NC(=O)[C@]3(C)CCCN3C2=O)cc1 [Compound 433] (Ac-[dK][dA][Trp(5-F)][Trp(5-F)]DHY(Me)[αMeP][Aad]-NH2; linker 1-9 via X6) | 0.1 to 1
16 | COc1ccc(C[C@@H]2NC(=O)[C@H](Cc3cnc[nH]3)NC(=O)[C@H](CC(=O)O)NC(=O)[C@H](Cc3c[nH]c4ccc(F)cc34)NC(=O)[C@H](Cc3c[nH]c4ccc(F)cc34)NC(=O)[C@@H](C)NC(=O)[C@H](CCCCC(=O)O)NC(=O)CCSCc3cccc(c3)CSCCNC(=O)[C@]3(C)CCCN3C2=O)cc1 [Compound 425] (cyclo(DHY(Me)[αMeP][X4][Nle(6-COOH)][dA][Trp(5-F)][Trp(5-F)])) | 0.00011 to 0.1
17 | COc1ccc(C[C@@H]2NC(=O)[C@H](Cc3cnc[nH]3)NC(=O)[C@H](CC(=O)O)NC(=O)[C@H](Cc3c[nH]c4ccc(F)cc34)NC(=O)[C@H](Cc3c[nH]c4ccc(F)cc34)NC(=O)[C@@H](C)NC(=O)Cc3cccc(c3)NC(=O)C[C@@H](C(=O)O)NC(=O)[C@]3(C)CCCN3C2=O)cc1 [Compound 413] ([Phac(3-amino)][dA][Trp(5-F)][Trp(5-F)]DHY(Me)[αMeP]D-OH; lactam N-9) | 21 to 50
18 | COc1ccc(C[C@@H]2NC(=O)[C@@H]([C@H](C)O)NC(=O)[C@@H]3C[C@@H](O)CN3C(=O)[C@H](Cc3c[nH]c4ccc(F)cc34)NC(=O)[C@H](Cc3c[nH]c4ccc(F)cc34)NC(=O)[C@@H](C)NC(=O)[C@H](CCCCN)NC(=O)CCSCc3cc(F)cc(c3)CSCCNC(=O)[C@]3(C)CCCN3C2=O)cc1 [Compound 087] (cyclo([Hyp][dT]Y(Me)[αMeP][X3]K[dA][Trp(5-F)][Trp(5-F)])) | 21 to 50
19 | CC(C)C[C@H]1C(=O)N[C@@H](Cc2ccc(O)cc2)C(=O)N2CCC[C@@]2(C)C(=O)N[C@H](C(N)=O)CSCc2cccc(c2)CSCCC(=O)N[C@@H](CCCCN)C(=O)NCC(=O)N[C@@H](Cc2c[nH]c3ccc(F)cc23)C(=O)N[C@@H](Cc2c[nH]c3ccc(F)cc23)C(=O)N2CCC[C@@]23CCN1C3=O [Compound 127] | 0.1 to 1
20 | C[C@@]12CCCN1C(=O)[C@H](Cc1ccc(O)cc1)NC(=O)[C@H](Cc1cnc[nH]1)NC(=O)[C@H](CC(=O)O)NC(=O)[C@H](Cc1c[nH]c3ccc(F)cc13)NC(=O)[C@H](Cc1c[nH]c3ccc(O)cc13)NC(=O)CNC(=O)[C@H](CCCCN)NC(=O)CCSCc1cccc(c1)CSC[C@@H](C(N)=O)NC2=O [Compound 414] ([Mpa]KG[Trp(5-OH)][Trp(5-F)]DHY[αMeP]C-NH2; linker 1-10 via mXylylene) | 0.1 to 1
